Legend:
[1] = biological target: BDNF/NT-3 growth factors receptor (Homo sapiens) (UniProt Q16620); assay: Inhibition of human recombinant TRKB at 500 nM in presence of ATP by radiometric assay relative to control
[2] = biological target: T1, Muscle, skeletal receptor tyrosine-protein kinase (Homo sapiens) (UniProt O15146); assay: Inhibition of human recombinant MUSK at 500 nM related to control ULK1
T1 sequence (whole entry): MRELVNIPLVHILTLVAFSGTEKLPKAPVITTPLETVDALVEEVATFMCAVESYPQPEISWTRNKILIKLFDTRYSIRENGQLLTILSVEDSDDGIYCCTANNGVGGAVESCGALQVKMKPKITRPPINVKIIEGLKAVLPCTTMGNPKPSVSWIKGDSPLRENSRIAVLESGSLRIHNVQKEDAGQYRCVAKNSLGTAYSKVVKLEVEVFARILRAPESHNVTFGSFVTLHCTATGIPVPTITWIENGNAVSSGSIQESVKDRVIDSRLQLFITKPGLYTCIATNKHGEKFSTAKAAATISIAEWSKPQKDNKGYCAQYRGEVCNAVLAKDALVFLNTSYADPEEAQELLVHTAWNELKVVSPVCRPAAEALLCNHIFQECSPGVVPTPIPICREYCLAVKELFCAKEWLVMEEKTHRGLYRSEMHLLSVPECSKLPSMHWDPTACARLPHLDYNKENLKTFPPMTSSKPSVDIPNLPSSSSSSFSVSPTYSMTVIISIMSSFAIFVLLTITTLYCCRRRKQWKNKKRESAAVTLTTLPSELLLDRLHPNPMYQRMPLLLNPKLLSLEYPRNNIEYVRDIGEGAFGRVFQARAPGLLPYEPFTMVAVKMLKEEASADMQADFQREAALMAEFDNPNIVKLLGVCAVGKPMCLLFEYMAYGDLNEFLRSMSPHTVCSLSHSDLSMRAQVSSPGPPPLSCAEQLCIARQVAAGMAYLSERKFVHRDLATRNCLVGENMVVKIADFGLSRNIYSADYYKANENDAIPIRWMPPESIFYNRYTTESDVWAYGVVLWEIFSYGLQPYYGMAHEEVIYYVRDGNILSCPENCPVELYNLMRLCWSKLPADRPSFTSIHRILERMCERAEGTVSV

[3] = biological target: Serine/threonine-protein kinase NIM1 (Homo sapiens) (UniProt Q8IY84); assay: Inhibition of human recombinant NIM1 at 500 nM related to control ULK1
[4] = biological target: Tyrosine-protein kinase Lyn (Homo sapiens) (UniProt P07948); assay: Inhibition of human recombinant LYN at 15 nM in presence of ATP by radiometric assay relative to control
[5] = biological target: SRSF protein kinase 3 (Homo sapiens) (UniProt Q9UPE1); assay: Inhibition of human recombinant MSSK1 at 15 nM in presence of ATP by radiometric assay relative to control
[6] = biological target: Serine/threonine-protein kinase N1 (Homo sapiens) (UniProt Q16512); assay: Inhibition of human recombinant PKN1 at 15 nM in presence of ATP by radiometric assay relative to control
Homo sapiens = species: Homo sapiens; assay: Inhibition of human recombinant p70S6K at 15 nM related to control ULK1
[7] = biological target: Serine/threonine-protein kinase PAK 1 (Homo sapiens) (UniProt Q13153); assay: Inhibition of human recombinant PAK1 at 15 nM related to control ULK1
[8] = biological target: Serine/threonine-protein kinase MRCK beta (Homo sapiens) (UniProt Q9Y5S2); assay: Inhibition of human recombinant MRCKb at 40 nM in presence of ATP by radiometric assay relative to control
[9] = biological target: Serine/threonine-protein kinase SBK1 (Homo sapiens) (UniProt Q52WX2); assay: Inhibition of human recombinant SBK1 at 40 nM in presence of ATP by radiometric assay relative to control
[10] = biological target: T2, Serine/threonine-protein kinase NLK (Homo sapiens) (UniProt Q9UBE8); assay: Inhibition of human recombinant NLK at 40 nM related to control ULK1
T2 sequence (whole entry): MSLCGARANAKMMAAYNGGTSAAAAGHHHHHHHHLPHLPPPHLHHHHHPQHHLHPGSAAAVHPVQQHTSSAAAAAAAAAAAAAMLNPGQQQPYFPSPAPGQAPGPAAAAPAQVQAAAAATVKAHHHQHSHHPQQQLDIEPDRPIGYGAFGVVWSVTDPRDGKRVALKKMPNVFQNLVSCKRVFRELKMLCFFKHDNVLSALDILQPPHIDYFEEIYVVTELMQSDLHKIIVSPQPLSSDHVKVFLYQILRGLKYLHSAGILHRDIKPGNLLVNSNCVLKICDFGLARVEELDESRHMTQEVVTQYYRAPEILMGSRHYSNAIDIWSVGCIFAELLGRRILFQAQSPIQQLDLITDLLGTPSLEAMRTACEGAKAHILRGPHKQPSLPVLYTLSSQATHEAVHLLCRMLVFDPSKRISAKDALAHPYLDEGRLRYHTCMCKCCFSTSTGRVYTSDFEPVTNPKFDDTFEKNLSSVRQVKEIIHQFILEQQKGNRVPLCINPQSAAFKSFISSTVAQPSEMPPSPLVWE

[11] = biological target: T3, Protein kinase C epsilon type (Homo sapiens) (UniProt Q02156); assay: Inhibition of human recombinant PKCe at 40 nM related to control ULK1
T3 sequence (whole entry): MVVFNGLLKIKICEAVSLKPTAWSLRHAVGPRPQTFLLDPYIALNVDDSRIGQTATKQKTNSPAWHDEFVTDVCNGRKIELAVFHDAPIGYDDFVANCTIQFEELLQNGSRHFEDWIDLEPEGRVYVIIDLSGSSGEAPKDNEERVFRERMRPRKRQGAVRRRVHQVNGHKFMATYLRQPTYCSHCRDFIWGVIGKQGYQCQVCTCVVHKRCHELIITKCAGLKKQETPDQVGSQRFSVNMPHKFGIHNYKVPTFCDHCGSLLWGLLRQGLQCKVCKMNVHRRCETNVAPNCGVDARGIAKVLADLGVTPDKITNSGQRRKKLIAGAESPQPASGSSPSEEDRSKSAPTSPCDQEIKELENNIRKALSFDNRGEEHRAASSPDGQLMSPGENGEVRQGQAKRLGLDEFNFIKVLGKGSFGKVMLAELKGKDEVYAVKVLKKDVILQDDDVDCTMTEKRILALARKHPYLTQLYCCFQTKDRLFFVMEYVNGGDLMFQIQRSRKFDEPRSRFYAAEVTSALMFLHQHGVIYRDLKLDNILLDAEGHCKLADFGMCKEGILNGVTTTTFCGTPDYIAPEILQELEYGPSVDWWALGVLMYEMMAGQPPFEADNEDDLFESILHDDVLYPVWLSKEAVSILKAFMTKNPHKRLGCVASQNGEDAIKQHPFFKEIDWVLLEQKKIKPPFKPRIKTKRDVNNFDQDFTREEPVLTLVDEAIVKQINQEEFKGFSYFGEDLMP

[12] = biological target: Hepatocyte growth factor receptor MET (Homo sapiens) (UniProt P08581); assay: Inhibition of human recombinant MET at 40 nM in presence of ATP by radiometric assay relative to control
Sequence of Hepatocyte growth factor receptor MET (Homo sapiens) (P08581 whole entry, looked up): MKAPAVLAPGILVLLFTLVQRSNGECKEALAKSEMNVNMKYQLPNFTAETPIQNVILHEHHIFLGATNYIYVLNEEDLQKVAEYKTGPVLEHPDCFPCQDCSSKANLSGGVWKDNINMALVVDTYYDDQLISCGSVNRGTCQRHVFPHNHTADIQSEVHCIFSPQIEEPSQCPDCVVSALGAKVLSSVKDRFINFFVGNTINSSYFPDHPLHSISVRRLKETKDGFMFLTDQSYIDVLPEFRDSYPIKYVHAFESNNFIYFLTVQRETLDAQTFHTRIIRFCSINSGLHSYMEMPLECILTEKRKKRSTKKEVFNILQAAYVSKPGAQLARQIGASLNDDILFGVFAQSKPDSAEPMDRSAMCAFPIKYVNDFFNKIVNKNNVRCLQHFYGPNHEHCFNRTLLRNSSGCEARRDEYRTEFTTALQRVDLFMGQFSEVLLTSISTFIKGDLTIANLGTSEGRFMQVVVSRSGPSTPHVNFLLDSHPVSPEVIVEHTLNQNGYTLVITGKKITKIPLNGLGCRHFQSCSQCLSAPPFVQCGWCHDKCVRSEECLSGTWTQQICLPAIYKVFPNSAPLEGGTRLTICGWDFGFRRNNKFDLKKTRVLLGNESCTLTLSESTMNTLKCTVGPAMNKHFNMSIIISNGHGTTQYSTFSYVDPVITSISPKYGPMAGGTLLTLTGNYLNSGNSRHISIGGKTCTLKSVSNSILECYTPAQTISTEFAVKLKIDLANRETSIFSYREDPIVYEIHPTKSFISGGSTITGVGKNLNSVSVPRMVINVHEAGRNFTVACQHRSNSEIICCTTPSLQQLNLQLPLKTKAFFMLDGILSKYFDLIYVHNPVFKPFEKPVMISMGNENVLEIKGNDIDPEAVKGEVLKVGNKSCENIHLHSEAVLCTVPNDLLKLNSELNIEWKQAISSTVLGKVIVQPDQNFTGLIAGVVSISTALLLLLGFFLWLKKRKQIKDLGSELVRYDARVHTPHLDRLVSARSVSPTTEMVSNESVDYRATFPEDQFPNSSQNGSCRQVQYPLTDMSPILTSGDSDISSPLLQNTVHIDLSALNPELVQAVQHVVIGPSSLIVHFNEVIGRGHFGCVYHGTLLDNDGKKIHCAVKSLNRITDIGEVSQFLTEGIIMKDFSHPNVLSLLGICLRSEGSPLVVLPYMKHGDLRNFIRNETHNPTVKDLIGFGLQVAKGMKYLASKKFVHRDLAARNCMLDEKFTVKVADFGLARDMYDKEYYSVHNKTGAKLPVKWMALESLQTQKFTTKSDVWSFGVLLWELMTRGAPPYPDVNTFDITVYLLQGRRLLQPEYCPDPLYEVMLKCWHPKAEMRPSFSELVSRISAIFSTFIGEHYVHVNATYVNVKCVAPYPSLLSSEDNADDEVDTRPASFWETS

Sequence of Serine/threonine-protein kinase PAK 1 (Homo sapiens) (Q13153 whole entry, looked up): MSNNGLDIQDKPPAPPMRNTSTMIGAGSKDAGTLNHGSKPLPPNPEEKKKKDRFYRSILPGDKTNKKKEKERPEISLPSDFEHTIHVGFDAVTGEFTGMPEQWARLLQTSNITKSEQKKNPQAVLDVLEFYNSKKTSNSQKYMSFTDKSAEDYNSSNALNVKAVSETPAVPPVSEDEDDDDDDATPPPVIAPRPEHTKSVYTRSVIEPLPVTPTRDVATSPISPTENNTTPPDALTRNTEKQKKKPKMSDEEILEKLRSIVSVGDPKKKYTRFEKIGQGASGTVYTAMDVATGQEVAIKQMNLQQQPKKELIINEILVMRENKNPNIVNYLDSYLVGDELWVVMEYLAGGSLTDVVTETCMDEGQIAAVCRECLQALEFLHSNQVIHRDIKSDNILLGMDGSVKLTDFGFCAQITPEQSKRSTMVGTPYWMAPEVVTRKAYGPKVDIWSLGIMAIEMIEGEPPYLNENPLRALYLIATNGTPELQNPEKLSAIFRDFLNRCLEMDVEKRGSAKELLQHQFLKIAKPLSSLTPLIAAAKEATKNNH
Sequence of BDNF/NT-3 growth factors receptor (Homo sapiens) (Q16620 32-822 limits assumed): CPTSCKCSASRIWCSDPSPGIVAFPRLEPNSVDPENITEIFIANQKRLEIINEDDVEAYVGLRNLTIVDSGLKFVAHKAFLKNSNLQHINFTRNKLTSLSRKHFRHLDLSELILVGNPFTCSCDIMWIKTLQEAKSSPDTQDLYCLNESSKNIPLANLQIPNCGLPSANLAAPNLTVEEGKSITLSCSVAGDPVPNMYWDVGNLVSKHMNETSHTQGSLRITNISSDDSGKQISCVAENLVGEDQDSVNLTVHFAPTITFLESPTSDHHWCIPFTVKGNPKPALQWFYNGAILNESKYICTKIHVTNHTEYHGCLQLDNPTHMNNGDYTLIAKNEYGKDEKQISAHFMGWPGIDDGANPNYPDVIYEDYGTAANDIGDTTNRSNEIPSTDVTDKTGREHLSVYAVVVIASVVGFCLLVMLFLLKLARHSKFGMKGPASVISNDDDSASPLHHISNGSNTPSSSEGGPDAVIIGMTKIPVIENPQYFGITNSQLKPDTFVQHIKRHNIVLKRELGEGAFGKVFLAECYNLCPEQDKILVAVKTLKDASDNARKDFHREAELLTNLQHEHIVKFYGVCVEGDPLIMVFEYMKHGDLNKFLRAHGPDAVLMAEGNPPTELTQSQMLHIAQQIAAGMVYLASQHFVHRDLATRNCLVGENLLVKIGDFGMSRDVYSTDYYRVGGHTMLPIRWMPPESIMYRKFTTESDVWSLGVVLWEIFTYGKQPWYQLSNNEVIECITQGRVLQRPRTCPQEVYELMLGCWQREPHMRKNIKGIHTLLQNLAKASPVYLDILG
Sequence of Serine/threonine-protein kinase NIM1 (Homo sapiens) (Q8IY84 whole entry): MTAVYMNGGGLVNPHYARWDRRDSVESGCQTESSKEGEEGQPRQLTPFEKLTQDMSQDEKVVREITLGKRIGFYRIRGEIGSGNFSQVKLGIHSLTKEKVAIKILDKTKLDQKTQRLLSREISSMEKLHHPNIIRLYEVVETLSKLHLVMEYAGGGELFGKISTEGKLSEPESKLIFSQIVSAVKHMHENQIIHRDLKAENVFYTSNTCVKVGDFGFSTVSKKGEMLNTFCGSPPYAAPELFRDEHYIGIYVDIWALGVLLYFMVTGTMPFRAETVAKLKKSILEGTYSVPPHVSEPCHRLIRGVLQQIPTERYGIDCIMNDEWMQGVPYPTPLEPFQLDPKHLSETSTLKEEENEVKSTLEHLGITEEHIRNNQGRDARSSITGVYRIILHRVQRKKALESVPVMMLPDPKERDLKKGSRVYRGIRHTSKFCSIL
Sequence of Serine/threonine-protein kinase N1 (Homo sapiens) (Q16512 2-942 limits assumed): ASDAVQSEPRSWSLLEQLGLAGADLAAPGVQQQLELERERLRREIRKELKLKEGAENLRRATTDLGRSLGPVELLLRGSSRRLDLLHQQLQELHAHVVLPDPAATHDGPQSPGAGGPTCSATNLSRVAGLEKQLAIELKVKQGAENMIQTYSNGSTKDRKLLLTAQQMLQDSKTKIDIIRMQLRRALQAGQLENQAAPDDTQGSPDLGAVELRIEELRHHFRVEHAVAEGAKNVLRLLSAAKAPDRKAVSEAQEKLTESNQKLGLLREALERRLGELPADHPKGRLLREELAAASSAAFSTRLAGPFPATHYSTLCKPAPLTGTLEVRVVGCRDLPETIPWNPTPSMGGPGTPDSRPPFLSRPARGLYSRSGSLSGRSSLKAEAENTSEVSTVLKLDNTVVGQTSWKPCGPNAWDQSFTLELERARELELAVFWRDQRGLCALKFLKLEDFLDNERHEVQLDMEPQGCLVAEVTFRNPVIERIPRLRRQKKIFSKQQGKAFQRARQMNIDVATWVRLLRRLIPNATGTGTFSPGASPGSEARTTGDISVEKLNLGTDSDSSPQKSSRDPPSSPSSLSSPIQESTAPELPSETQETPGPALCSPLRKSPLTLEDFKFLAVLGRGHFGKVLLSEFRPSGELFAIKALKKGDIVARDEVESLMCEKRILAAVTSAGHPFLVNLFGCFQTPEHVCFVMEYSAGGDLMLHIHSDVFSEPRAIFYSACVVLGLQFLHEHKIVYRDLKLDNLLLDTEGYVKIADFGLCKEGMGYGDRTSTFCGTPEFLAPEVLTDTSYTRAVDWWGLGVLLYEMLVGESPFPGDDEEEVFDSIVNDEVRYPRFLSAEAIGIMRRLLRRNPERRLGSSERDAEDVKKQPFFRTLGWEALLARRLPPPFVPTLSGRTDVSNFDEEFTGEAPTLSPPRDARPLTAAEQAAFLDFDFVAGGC
Sequence of Serine/threonine-protein kinase SBK1 (Homo sapiens) (Q52WX2 whole entry): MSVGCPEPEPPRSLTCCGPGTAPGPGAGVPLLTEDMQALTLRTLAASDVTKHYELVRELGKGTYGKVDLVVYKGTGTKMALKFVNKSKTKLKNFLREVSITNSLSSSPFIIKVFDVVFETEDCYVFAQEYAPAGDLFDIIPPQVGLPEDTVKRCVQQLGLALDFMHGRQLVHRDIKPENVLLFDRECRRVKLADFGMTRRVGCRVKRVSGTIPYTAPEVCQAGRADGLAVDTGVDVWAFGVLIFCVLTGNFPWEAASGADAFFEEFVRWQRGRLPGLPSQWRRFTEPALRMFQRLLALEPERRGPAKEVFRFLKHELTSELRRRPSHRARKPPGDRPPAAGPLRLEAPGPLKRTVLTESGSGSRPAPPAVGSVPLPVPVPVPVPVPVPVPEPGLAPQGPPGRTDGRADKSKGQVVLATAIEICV
Sequence of Tyrosine-protein kinase Lyn (Homo sapiens) (P07948 2-512 limits assumed): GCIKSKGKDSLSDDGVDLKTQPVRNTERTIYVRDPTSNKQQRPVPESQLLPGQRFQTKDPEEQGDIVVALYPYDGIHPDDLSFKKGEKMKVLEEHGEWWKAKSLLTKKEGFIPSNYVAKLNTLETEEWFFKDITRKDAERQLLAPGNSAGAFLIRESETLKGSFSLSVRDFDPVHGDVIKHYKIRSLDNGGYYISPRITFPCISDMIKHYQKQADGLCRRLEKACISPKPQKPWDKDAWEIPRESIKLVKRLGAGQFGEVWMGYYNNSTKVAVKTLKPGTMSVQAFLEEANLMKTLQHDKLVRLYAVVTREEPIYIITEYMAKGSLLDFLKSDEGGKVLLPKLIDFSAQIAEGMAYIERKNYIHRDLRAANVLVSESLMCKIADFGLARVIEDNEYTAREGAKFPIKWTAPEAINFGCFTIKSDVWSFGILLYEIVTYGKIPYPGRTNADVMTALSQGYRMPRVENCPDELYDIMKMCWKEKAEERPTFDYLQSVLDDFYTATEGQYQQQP

Which results are given for `CNC(=O)c1ccccc1Oc1nc(Nc2cc(OC)c(OC)c(OC)c2)ncc1Br`?
inhibition [1]: 48%; fold change (FC) [2]: 0.46; fold change (FC) [3]: 0

With `CC(C)[C@H](NC(=O)c1cc(-c2cnn3cc(-c4ccc(OCCN5CCCCC5)cc4)cnc23)cs1)C(F)(F)F` as the compound, how does the inhibition [4] read?
Its inhibition is 19%.

And the inhibition [5]?
The inhibition was 0%.

And the inhibition [6]?
The inhibition was 0%.

What about the fold change (FC) (Homo sapiens) of the same compound?
Its fold change (FC) is 0.19.

And the fold change (FC) [7]?
The fold change (FC) was 0.

How did the inhibition [8] turn out when `O=C(N[C@@H](C1CC1)C(F)(F)F)c1cc(-c2cnn3cc(-c4ccc(F)cc4)cnc23)cs1` was run?
Its inhibition is 5%.

What about the inhibition [9] of the same compound?
Its inhibition is 0%.

What about the fold change (FC) [10] of the same compound?
Its fold change (FC) is 0.64.

What about the fold change (FC) [11] of the same compound?
The fold change (FC) was 0.

And the inhibition [12]?
The inhibition was 16%.

Source: ChEMBL document CHEMBL5653631, “A Potent and Selective ULK1 Inhibitor Suppresses Autophagy and Sensitizes Cancer Cells to Nutrient Stress” (iScience, 2018)
